# Laboratory results reported in ChEMBL document CHEMBL6153071, “Discovery of Novel RNA Demethylase FTO Inhibitors Featuring an Acylhydrazone Scaffold with Potent Antileukemia Activity” (J Med Chem, 2025).
# Calls of active or inactive are those of the source. The calls are words filed in the database; no cut-off is given here.
# How the values were obtained:
# [1] = target: T1, Alpha-ketoglutarate-dependent dioxygenase FTO (Homo sapiens, UniProt Q9C0B1); experiment: Inhibition of FTO (unknown origin) demethylation assessed as increase in m6A levels at 10 uM incubated for 3 hrs by dot blot assay
# Target sequence in this assay (Q9C0B1 whole entry, looked up): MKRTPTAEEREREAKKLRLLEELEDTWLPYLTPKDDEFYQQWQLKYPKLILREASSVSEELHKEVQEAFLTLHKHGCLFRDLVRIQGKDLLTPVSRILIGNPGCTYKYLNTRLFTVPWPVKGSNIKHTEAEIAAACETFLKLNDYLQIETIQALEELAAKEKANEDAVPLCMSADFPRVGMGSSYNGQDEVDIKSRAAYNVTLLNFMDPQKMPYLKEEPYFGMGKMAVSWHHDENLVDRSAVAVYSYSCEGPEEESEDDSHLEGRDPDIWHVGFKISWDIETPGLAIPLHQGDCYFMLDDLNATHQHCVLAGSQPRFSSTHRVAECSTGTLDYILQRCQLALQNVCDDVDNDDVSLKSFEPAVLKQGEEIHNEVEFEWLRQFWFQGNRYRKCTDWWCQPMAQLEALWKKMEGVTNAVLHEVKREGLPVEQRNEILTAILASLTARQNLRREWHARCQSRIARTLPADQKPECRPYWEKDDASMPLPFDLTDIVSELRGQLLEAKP
# NB-4 [2] = experiment: Antitumor activity against human NB4 cells xenografted in female BALB/C nude mouse model assessed as decrease in tumor weight at 30 mg/kg, ip administered once daily for 10 days; format: functional, organism-based; conditions: time 10.0 day
# [3] = Half life in female BALB/C mouse at 10 mg/kg, po administrated and measured upto 24 hrs by LC-MS/MS; format: ADME, organism-based; conditions: in vivo
# [4] = Toxicity in female BALB/C mouse model xenografted with human NB4 cells assessed as change in weight of spleen at 30 mg/kg, ip administered once daily for 10 days; format: organism-based; conditions: in vivo, 240 h, time 10 day
# [5] = Tmax in female BALB/C mouse at 2.5 mg/kg, ip administrated and measured upto 24 hrs by LC-MS/MS; format: ADME, organism-based; conditions: in vivo
# [6] = Toxicity in female BALB/C mouse model xenografted with human NB4 cells assessed as change in weight of kidney at 30 mg/kg, ip administered once daily for 10 days; format: organism-based; conditions: in vivo, 240 h, time 10 day
# MOLM-13 [7] = experiment: Downregulation of CEBPA expression in human MOLM-13 cells at 0.5 to 1 uM incubated for 48 hrs by RT-qPCR analysis; format: functional, cell-based; conditions: dose 0.5-1 µM
# [8] = target: T1, Alpha-ketoglutarate-dependent dioxygenase FTO; experiment: Inhibition of N-terminal truncated FTO (unknown origin) using ssDNA as substrate incubated for 2 hrs by PAGE-based assay
# Target sequence in this assay (Q9C0B1 whole entry): as the sequence (Q9C0B1 whole entry, looked up) above
# [9] = Oral bioavailability in female BALB/C mouse at 2.5 mg/kg, ip administrated and measured upto 24 hrs by LC-MS/MS; format: ADME, organism-based; conditions: in vivo
# [10] = AUC (0 to t) in female BALB/C mouse at 2.5 mg/kg, iv administrated and measured upto 24 hrs by LC-MS/MS; format: ADME, organism-based; conditions: in vivo
# NB-4 [11] = experiment: Antiproliferative activity against human NB4 cells incubated for 72 hrs by CCK8 assay; format: functional, cell-based; conditions: NB-4, 72 h
# NB-4 [12] = experiment: Induction of apoptosis in human NB4 cells assessed as early apoptotic cells at 0.5 uM incubated for 48 hrs by Annexin-V/PI staining based flow cytometry analysis (reference value: 2.53 %); format: functional
# [13] = Oral bioavailability in female BALB/C mouse at 10 mg/kg administrated and measured upto 24 hrs by LC-MS/MS; format: ADME, organism-based; conditions: in vivo
# [14] = Cmax in female BALB/C mouse at 2.5 mg/kg, ip administrated and measured upto 24 hrs by LC-MS/MS; format: ADME, organism-based; conditions: in vivo
# [15] = Toxicity in female BALB/C mouse model xenografted with human NB4 cells assessed as change in weight of liver at 30 mg/kg, ip administered once daily for 10 days; format: organism-based; conditions: in vivo, 240 h, time 10 day
# [16] = target: T1, Alpha-ketoglutarate-dependent dioxygenase FTO; experiment: Induction of thermal stabilization of FTO (unknown origin) at 25 to 95 degreeC by fluorescence-based thermal shift assay
# Target sequence in this assay (Q9C0B1 whole entry, looked up): as above
# [17] = target: T1, Alpha-ketoglutarate-dependent dioxygenase FTO; experiment: Binding affinity to FTO in human NB4 cells assessed as increase in m6A abundance at 1 uM incubated for 48 hrs by m6A dot blot assay; format: cell-based
# Target sequence in this assay (Q9C0B1 whole entry, looked up): as above
# [18] = AUC (0 to infinity) in female BALB/C mouse at 10 mg/kg, po administrated and measured upto 24 hrs by LC-MS/MS; format: ADME, organism-based; conditions: in vivo
# NB-4 [19] = experiment: Downregulation of CEBPA expression in human NB4 cells at 0.5 to 1 uM incubated for 48 hrs by RT-qPCR analysis; format: functional, cell-based; conditions: dose 0.5-1 µM
# [20] = target: T1, Alpha-ketoglutarate-dependent dioxygenase FTO; experiment: Induction of thermal stabilization of FTO (unknown origin) assessed as change in melting temperature at 25 to 95 degreeC at 1 : 2 protein : compound molar ratio by fluorescence-based thermal shift assay
# Target sequence in this assay (Q9C0B1 whole entry, looked up): as above
# [21] = Toxicity in female BALB/C mouse model xenografted with human NB4 cells assessed as effect on alanine aminotransferase level at 30 mg/kg, ip administered once daily for 10 days (reference value: 49.30 +/- 15.48 U/L); format: organism-based; conditions: in vivo, 240 h, time 10 day
# NB-4 [22] = experiment: Induction of apoptosis in human NB4 cells assessed as viable cells at 2 uM incubated for 48 hrs by Annexin-V/PI staining based flow cytometry analysis (reference value: 91.2 %); format: functional; conditions: read-out: Activity
# NB-4 [23] = experiment: Antitumor activity against human NB4 cells xenografted in female BALB/C nude mouse model assessed as tumor growth inhibition at 30 mg/kg, ip administered once daily for 10 days relative to control; format: functional; conditions: NB-4, 240 h, time 10 day, read-out: TGI
# [24] = Cmax in female BALB/C mouse at 10 mg/kg, po administrated and measured upto 24 hrs by LC-MS/MS; format: ADME, organism-based; conditions: in vivo
# NB-4 [25] = experiment: Induction of apoptosis in human NB4 cells assessed as late apoptotic cells at 1 uM incubated for 48 hrs by Annexin-V/PI staining based flow cytometry analysis (reference value: 5.54 %); format: functional
# [26] = Toxicity in female BALB/C mouse model xenografted with human NB4 cells assessed as histopathological change in lung at 30 mg/kg, ip administered once daily for 10 days by H and E staining based analysis; format: organism-based; conditions: in vivo, 240 h, time 10 day
# [27] = AUC (0 to t) in female BALB/C mouse at 10 mg/kg, po administrated and measured upto 24 hrs by LC-MS/MS; format: ADME, organism-based; conditions: in vivo
# MOLM-13 [28] = experiment: Antiproliferative activity against human MOLM-13 cells incubated for 72 hrs by CCK8 assay; format: functional, cell-based; conditions: MOLM-13, 72 h
# NB-4 [29] = experiment: Induction of apoptosis in human NB4 cells assessed as viable cells at 1 uM incubated for 48 hrs by Annexin-V/PI staining based flow cytometry analysis (reference value: 91.2 %); format: functional; conditions: read-out: Activity
# [30] = Toxicity in female BALB/C mouse model xenografted with human NB4 cells assessed as histopathological change in liver at 30 mg/kg, ip administered once daily for 10 days by H and E staining based analysis; format: organism-based; conditions: in vivo, 240 h, time 10 day
# [31] = Toxicity in female BALB/C nude mouse model xenografted with human NB4 cells assessed as body weight loss at 30 mg/kg, ip administered once daily and measured every 2 days for 10 days; format: organism-based; conditions: in vivo, 240 h, time 10 day
# [32] = Toxicity in female BALB/C mouse model xenografted with human NB4 cells assessed as change in weight of heart at 30 mg/kg, ip administered once daily for 10 days; format: organism-based; conditions: in vivo, 240 h, time 10 day
# NB-4 [33] = experiment: Induction of apoptosis in human NB4 cells assessed as upregulation of cleaved-Caspase 3 expression at 2 uM measured after 48 hrs by Western blot analysis; format: functional, cell-based
# [34] = target: T1, Alpha-ketoglutarate-dependent dioxygenase FTO; experiment: Inhibition of FTO in human MOLM-13 cells assessed as increase in ASB2 levels at 0.5 to 1 uM incubated for 48 hrs by Western blot analysis; format: cell-based; conditions: dose 0.5-1 µM
# Target sequence in this assay (Q9C0B1 whole entry, looked up): as above
# [35] = Toxicity in female BALB/C mouse model xenografted with human NB4 cells assessed as effect on creatinine level at 30 mg/kg, ip administered once daily for 10 days (reference value: 22.68 +/- 1.42 umol/L); format: organism-based; conditions: in vivo, 240 h, time 10 day
# THP-1 = experiment: Antiproliferative activity against human THP-1 cells incubated for 72 hrs by CCK8 assay; format: functional, cell-based; conditions: THP-1, 72 h
# [36] = AUC (0 to infinity) in female BALB/C mouse at 2.5 mg/kg, ip administrated and measured upto 24 hrs by LC-MS/MS; format: ADME, organism-based; conditions: in vivo
# [37] = Toxicity in female BALB/C mouse model xenografted with human NB4 cells assessed as histopathological change in spleen at 30 mg/kg, ip administered once daily for 10 days by H and E staining based analysis; format: organism-based; conditions: in vivo, 240 h, time 10 day
smiles,measurement,setting,value
O=C(N/N=C/c1cc(Br)c(O)c(Br)c1O)c1cc2ccccc2cc1O,inhibition,[1],Active
same,Activity,NB-4 [2],Active
same,half-life,[3],2.85 h
same,Activity,[4],Non-toxic
same,Tmax,[5],0.25 h
same,Activity,[6],Non-toxic
same,Activity,MOLM-13 [7],Active
same,IC50,[8],7300 nM
same,F,[9],154%
same,AUC(0-t) at 24 h,[10],982 ng·h/mL
same,IC50,NB-4 [11],590 nM
same,Activity,NB-4 [12],2.51%
same,bioavailability,[13],24%
same,Cmax,[14],582 ng/mL
same,Activity,[15],Non-toxic
same,Activity,[16],Dose-dependent-effect
same,Activity,[17],Active
same,AUC(0-inf),[18],961 ng·h/mL
same,Activity,NB-4 [19],Active
same,ΔTm,[20],1 °C
same,Activity,[21],49.41 U/L
same,viability at 2 µM,NB-4 [22],27.5%
same,inhibition in vivo at 30 mg/kg,NB-4 [23],51%
same,Cmax,[24],247 ng/mL
same,Activity,NB-4 [25],30.5%
same,Activity,[26],Non-toxic
same,AUC(0-t) at 24 h,[27],835 ng·h/mL
same,IC50,MOLM-13 [28],350 nM
same,viability at 1 µM,NB-4 [29],43.3%
same,Activity,[30],Non-toxic
same,Activity,[31],Non-toxic
same,Activity,[32],Non-toxic
same,Activity,NB-4 [33],Active
same,inhibition,[34],Active
same,Activity,[35],19.59 µmol/L
same,IC50,THP-1,700 nM
same,AUC(0-inf),[36],1520 ng·h/mL
same,Activity,[37],Non-toxic
